Results: patent publication US20100087516A1, “ANTIBACTERIAL MACROLACTIN A THAT BACILLUS POLYFERMENTICUS KJS-2 PRODUCED IN” (priority 2007, published 2010)
Converted amounts (≈) assume the structure as drawn. Read-outs that look alike come from different tables or passages of the source.

Tests used:
[1] = system: 11 VRE strains, clinically isolated; test: Minimal inhibitory concentration (MIC>90) in MH II medium; format: cell-based, vancomycin-resistant enterococci; details: for MIC: Enterococcus, VRE
Protocol: (§1) The MIC (minimal inhibitory concentration) against VRE and MRSA was measured to test antibiotic activity of Macrolactin A produced by Bacillus polyfermenticus KJS-2, which is the strain of the present invention, against the two strains. The strains used for the experiment were 11 VRE strains and 13 MRSA strains, which were clinically isolated. Each strain used for the experiment was cultured in MH II medium at 200 rpm for 6 hours at 37° C., the absorbance of the medium measured at OD600nm using a UV detector, and then 1 ml aliquot of the medium was spread over MH II agar medium and incubated for 16 hours at 37° C. The number of colonies formed on the agar medium after 16 hours of incubation was counted. Each strain used for experiment was cultured in MH II medium at 200 rpm for 6 hours at 37° C., and the absorbance of the medium was measured at OD600nm using a UV detector. The number of cells were calculated based on the ratio of the number of colonies to the absorbance of the medium, and measured by the above process. Each culture medium was diluted to the final cell concentration of 0.25*10^7 cfu/ml and Macrolactin A was dissolved in the solvent DMSO, while ampicillin, teycoplanin, vancomycin and methillin were dissolved in water. To measure the MIC of Macrolactin A or of the four antibiotics, the mixture of the materials listed in Table 5 and Macrolactin A or the mixture of the materials listed in Table 6 and each of the four antibiotics, respectively in a 500 μl eppendorff tub, was incubated at 200 rpm for 16 hours at 37° C., and then absorbance was measured by a UV/Visible Light detector at 600 nm using a Fluorescence Multi-Detection Reader.

[2] = system: 13 MRSA strains, clinically isolated; test: as above; format: cell-based, methicillin-resistant Staphylococcus aureus; details: for MIC: Staphylococcus aureus, MRSA
Protocol: as §1

[3] = system: vancomycin-resistant enterococci (VRE); details: cited from earlier work
[4] = system: methicillin-resistant Staphylococcus aureu (MRSA); details: cited from earlier work
Burkholderia cepacia = details: cited from earlier work
VRE5 = test: Bioassay at a gradient of concentration on TSB agar medium; format: cell-based, vancomycin-resistant enterococci; details: solution 5 mg/ml in H2O

## CC1(C)S[C@@H]2[C@H](NC(=O)[C@H](N)c3ccccc3)C(=O)N2[C@H]1C(=O)O [Ampicillin]
[1]; Average of the 11 VRE strains, read-out: average MIC>90
  MIC: 273 µg/mL (≈ 781 µM)
[1]; VRE1, read-out: MIC>90
  MIC: 250 µg/mL (≈ 715 µM)
[1]; VRE2, read-out: MIC>90
  MIC: 250 µg/mL (≈ 715 µM)
[1]; VRE3, read-out: MIC>90
  MIC: 250 µg/mL (≈ 715 µM)
[1]; VRE4, read-out: MIC>90
  MIC: 250 µg/mL (≈ 715 µM)
[1]; VRE5, read-out: MIC>90
  MIC: 250 µg/mL (≈ 715 µM)
[1]; VRE6, read-out: MIC>90
  MIC: 250 µg/mL (≈ 715 µM)
[1]; VRE7, read-out: MIC>90
  MIC: 250 µg/mL (≈ 715 µM)
[1]; VRE9, read-out: MIC>90
  MIC: 250 µg/mL (≈ 715 µM)
[1]; VRE10, read-out: MIC>90
  MIC: 250 µg/mL (≈ 715 µM)
[1]; VRE914, read-out: MIC>90
  MIC: 250 µg/mL (≈ 715 µM)
[1]; VRE915, read-out: MIC>90
  MIC: 500 µg/mL (≈ 1430 µM)
[2]; Average of the 13 MRSA strains, read-out: average MIC>90
  MIC: 212 µg/mL (≈ 605 µM)
[2]; MRSA1, read-out: MIC>90
  MIC: 250 µg/mL (≈ 715 µM)
[2]; MRSA2, read-out: MIC>90
  MIC: 250 µg/mL (≈ 715 µM)
[2]; MRSA3, read-out: MIC>90
  MIC: 250 µg/mL (≈ 715 µM)
[2]; MRSA4, read-out: MIC>90
  MIC: 250 µg/mL (≈ 715 µM)
[2]; MRSA5, read-out: MIC>90
  MIC: 250 µg/mL (≈ 715 µM)
[2]; MRSA6, read-out: MIC>90
  MIC: 250 µg/mL (≈ 715 µM)
[2]; MRSA7, read-out: MIC>90
  MIC: 250 µg/mL (≈ 715 µM)
[2]; MRSA8*, read-out: MIC>90
  MIC: 125 µg/mL (≈ 358 µM)
[2]; MRSA8, read-out: MIC>90
  MIC: 125 µg/mL (≈ 358 µM)
[2]; MRSA9, read-out: MIC>90
  MIC: 125 µg/mL (≈ 358 µM)
[2]; MRSA10, read-out: MIC>90
  MIC: 250 µg/mL (≈ 715 µM)
[2]; MRSA11*, read-out: MIC>90
  MIC: 250 µg/mL (≈ 715 µM)
[2]; MRSA11, read-out: MIC>90
  MIC: 125 µg/mL (≈ 358 µM)

## CC1CCC/C=C/C=C/C(O)CC(O)C/C=C\C=C\C(OC(=O)CC(=O)O)C/C=C/C=C\C(=O)O1 (stereo not shown) [Malonyl-macrolactin A (MMA), Malonyl-macrolactin A]
[3]
  antibiotic activity against VRE: excellent antibiotic activity
[4]
  antibiotic activity against MRSA: excellent antibiotic activity
Burkholderia cepacia
  antibiotic activity against Burkholderia cepacia: excellent antibiotic activity

## CN[C@H](CC(C)C)C(=O)N[C@H]1C(=O)N[C@@H](CC(N)=O)C(=O)N[C@H]2C(=O)N[C@H]3C(=O)N[C@H](C(=O)N[C@H](C(=O)O)c4cc(O)cc(O)c4-c4cc3ccc4O)[C@H](O)c3ccc(c(Cl)c3)Oc3cc2cc(c3O[C@@H]2O[C@H](CO)[C@@H](O)[C@H](O)[C@H]2O[C@H]2C[C@](C)(N)[C@H](O)[C@H](C)O2)Oc2ccc(cc2Cl)[C@H]1O [Vancomycin]
[1]; read-out: MIC>90, VRE1
  MIC: 500 µg/mL (≈ 345 µM)
[1]; read-out: MIC>90, VRE2
  MIC: 500 µg/mL (≈ 345 µM)
[1]; read-out: MIC>90, VRE3
  MIC: 125 µg/mL (≈ 86.3 µM)
[1]; read-out: MIC>90, VRE4
  MIC: 250 µg/mL (≈ 173 µM)
[1]; read-out: MIC>90, VRE5
  MIC: 250 µg/mL (≈ 173 µM)
[1]; read-out: MIC>90, VRE6
  MIC: 250 µg/mL (≈ 173 µM)
[1]; read-out: MIC>90, VRE7
  MIC: 250 µg/mL (≈ 173 µM)
[1]; read-out: MIC>90, VRE9
  MIC: 250 µg/mL (≈ 173 µM)
[1]; read-out: MIC>90, VRE10
  MIC: 125 µg/mL (≈ 86.3 µM)
[1]; read-out: MIC>90, VRE914
  MIC: 125 µg/mL (≈ 86.3 µM)
[1]; read-out: MIC>90, VRE915
  MIC: 250 µg/mL (≈ 173 µM)
[1]; read-out: average MIC>90, Average of the 11 VRE strains
  MIC: 261 µg/mL (≈ 180 µM)
[2]; read-out: MIC>90, MRSA1
  MIC: 250 µg/mL (≈ 173 µM)
[2]; read-out: MIC>90, MRSA2
  MIC: 125 µg/mL (≈ 86.3 µM)
[2]; read-out: MIC>90, MRSA3
  MIC: 125 µg/mL (≈ 86.3 µM)
[2]; read-out: MIC>90, MRSA4
  MIC: 125 µg/mL (≈ 86.3 µM)
[2]; read-out: MIC>90, MRSA5
  MIC: 125 µg/mL (≈ 86.3 µM)
[2]; read-out: MIC>90, MRSA6
  MIC: 250 µg/mL (≈ 173 µM)
[2]; read-out: MIC>90, MRSA7
  MIC: 250 µg/mL (≈ 173 µM)
[2]; read-out: MIC>90, MRSA8
  MIC: 125 µg/mL (≈ 86.3 µM)
[2]; read-out: MIC>90, MRSA8*
  MIC: 125 µg/mL (≈ 86.3 µM)
[2]; read-out: MIC>90, MRSA9
  MIC: 250 µg/mL (≈ 173 µM)
[2]; read-out: MIC>90, MRSA10
  MIC: 250 µg/mL (≈ 173 µM)
[2]; read-out: MIC>90, MRSA11
  MIC: 250 µg/mL (≈ 173 µM)
[2]; read-out: MIC>90, MRSA11*
  MIC: 31.2 µg/mL (≈ 21.6 µM)
[2]; read-out: average MIC>90, Average of the 13 MRSA strains
  MIC: 175 µg/mL (≈ 121 µM)
VRE5
  inhibition of VRE5 on TSB agar medium: not inhibited

## Teicoplanin
[1]; Average of the 11 VRE strains
  average MIC>90: 125 µg/mL
[1]; VRE1
  MIC>90: 250 µg/mL
[1]; VRE2
  MIC>90: 250 µg/mL
[1]; VRE3
  MIC>90: 62.5 µg/mL
[1]; VRE4
  MIC>90: 125 µg/mL
[1]; VRE5
  MIC>90: 125 µg/mL
[1]; VRE6
  MIC>90: 125 µg/mL
[1]; VRE7
  MIC>90: 125 µg/mL
[1]; VRE9
  MIC>90: 62.5 µg/mL
[1]; VRE10
  MIC>90: 62.5 µg/mL
[1]; VRE914
  MIC>90: 62.5 µg/mL
[1]; VRE915
  MIC>90: 125 µg/mL
[2]; Average of the 13 MRSA strains
  average MIC>90: 104.6 µg/mL
[2]; MRSA1
  MIC>90: 250 µg/mL
[2]; MRSA2
  MIC>90: 125 µg/mL
[2]; MRSA3
  MIC>90: 125 µg/mL
[2]; MRSA4
  MIC>90: 125 µg/mL
[2]; MRSA5
  MIC>90: 125 µg/mL
[2]; MRSA6
  MIC>90: 125 µg/mL
[2]; MRSA7
  MIC>90: 250 µg/mL
[2]; MRSA8
  MIC>90: 62.5 µg/mL
[2]; MRSA8*
  MIC>90: 31.25 µg/mL
[2]; MRSA9
  MIC>90: 15.63 µg/mL
[2]; MRSA10
  MIC>90: 31.25 µg/mL
[2]; MRSA11
  MIC>90: 31.25 µg/mL
[2]; MRSA11*
  MIC>90: 62.5 µg/mL
